Measurements published in PubChem BioAssay (NCI).
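A five-concentration, 48-hour dose response in 96-well plates underlies each endpoint, interpolated linearly between surrounding concentrations. GI50: concentration for 50% inhibition of growth. TGI: total growth inhibition.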

Tests used:
Assay in all cases: NCI tumour cell line growth inhibition, 48 h
TK-10 renal = tested on: TK-10 renal
HCT-15 colon = tested on: HCT-15 colon
U251 CNS = tested on: U251 CNS
MDA-MB-435 = tested on: MDA-MB-435
HOP-62 NSCLC = tested on: HOP-62 NSCLC
COLO 205 colon = tested on: COLO 205 colon
SR leukemia = tested on: SR leukemia
M14 melanoma = tested on: M14 melanoma
NCI/ADR-RES ovarian = tested on: NCI/ADR-RES ovarian
HCC-2998 colon = tested on: HCC-2998 colon

## c1cncc(C2Nc3cccc4cccc(c34)N2)c1
TK-10 renal
  GI50: 26.8 µM
  TGI: 73.6 µM
HCT-15 colon
  GI50: 26.3 µM
  TGI: > 100 µM
U251 CNS
  GI50: 21.9 µM
  TGI: 54 µM
MDA-MB-435
  GI50: 35.7 µM
  TGI: > 100 µM
HOP-62 NSCLC
  GI50: 42.5 µM
  TGI: > 100 µM
COLO 205 colon
  GI50: 22.6 µM
  TGI: 46.6 µM
SR leukemia
  GI50: 27.5 µM
  TGI: > 100 µM
M14 melanoma
  GI50: 46 µM
  TGI: > 100 µM
NCI/ADR-RES ovarian
  GI50: 33.8 µM
  TGI: > 100 µM
HCC-2998 colon
  GI50: > 100 µM
  TGI: > 100 µM

## Cc1cc(N2CCCC2)nc(NCc2cc(Nc3ccnc4cc(Cl)ccc34)ccc2F)n1
TK-10 renal
  GI50: 2.14 µM
  TGI: 3.72 µM
HCT-15 colon
  GI50: 1.06 µM
  TGI: 2.35 µM
U251 CNS
  GI50: 1.5 µM
  TGI: 2.84 µM
MDA-MB-435
  GI50: 1.51 µM
  TGI: 2.99 µM
HOP-62 NSCLC
  GI50: 1.46 µM
  TGI: 3.14 µM
COLO 205 colon
  GI50: 0.278 µM
  TGI: 1.43 µM
SR leukemia
  GI50: 0.243 µM
M14 melanoma
  GI50: 1.37 µM
  TGI: 2.85 µM
NCI/ADR-RES ovarian
  GI50: 1.39 µM
  TGI: 2.99 µM
HCC-2998 colon
  GI50: 1.13 µM
  TGI: 2.45 µM

## Cc1cc(C(=O)O)c(C)n1-c1cccc(C(=O)O)c1
TK-10 renal
  GI50: > 100 µM
  TGI: > 100 µM
HCT-15 colon
  GI50: > 100 µM
  TGI: > 100 µM
U251 CNS
  GI50: > 100 µM
  TGI: > 100 µM
MDA-MB-435
  GI50: > 100 µM
  TGI: > 100 µM
HOP-62 NSCLC
  GI50: > 100 µM
  TGI: > 100 µM
COLO 205 colon
  GI50: > 100 µM
  TGI: > 100 µM
SR leukemia
  GI50: > 100 µM
  TGI: > 100 µM
M14 melanoma
  GI50: > 100 µM
  TGI: > 100 µM
NCI/ADR-RES ovarian
  GI50: > 100 µM
  TGI: > 100 µM
HCC-2998 colon
  GI50: > 100 µM
  TGI: > 100 µM

## C/C(=N\NC(=S)N1CC2CCC(CC2)C1)c1cccc(C)n1
TK-10 renal
  GI50: 0.786 µM
  TGI: 16.1 µM
HCT-15 colon
  GI50: 0.307 µM
  TGI: 17.4 µM
U251 CNS
  GI50: 0.408 µM
  TGI: 11.8 µM
MDA-MB-435
  TGI: 19.6 µM
HOP-62 NSCLC
  GI50: 0.397 µM
  TGI: 14.2 µM
COLO 205 colon
  GI50: 0.000385 µM
  TGI: 11.1 µM
SR leukemia
  GI50: 0.21 µM
  TGI: > 32.9 µM
M14 melanoma
  GI50: 0.477 µM
  TGI: 5.55 µM
NCI/ADR-RES ovarian
  GI50: < 0.0001 µM
HCC-2998 colon
  TGI: 19.1 µM

## COC(=O)/C=C1/SC(N2N=C(c3cccs3)CC2c2ccc(F)cc2)=NC1=O (stereo not given)
TK-10 renal
  GI50: 2.6 µM
  TGI: 8.16 µM
HCT-15 colon
  GI50: 1.95 µM
  TGI: 4.44 µM
U251 CNS
  GI50: 1.89 µM
  TGI: 3.69 µM
MDA-MB-435
  GI50: 2.13 µM
  TGI: 4.8 µM
HOP-62 NSCLC
  GI50: 1.87 µM
  TGI: 4.29 µM
COLO 205 colon
  GI50: 2.15 µM
  TGI: 4.27 µM
SR leukemia
  GI50: 2.23 µM
  TGI: 11.8 µM
M14 melanoma
  GI50: 2.25 µM
  TGI: 5.17 µM
NCI/ADR-RES ovarian
  GI50: 2.84 µM
  TGI: 8.61 µM
HCC-2998 colon
  GI50: 1.97 µM
  TGI: 3.52 µM

## CC(=O)C1=C(C)N(C)C2(O)C=CC(=O)C3=C(O)c4ccccc4C(=O)C312 (stereo not given)
TK-10 renal
  GI50: 6.72 µM
  TGI: 20.7 µM
HCT-15 colon
  GI50: 5.41 µM
  TGI: 21.7 µM
U251 CNS
  GI50: 14 µM
  TGI: 31.4 µM
MDA-MB-435
  GI50: 2.12 µM
  TGI: 3.89 µM
HOP-62 NSCLC
  GI50: 5.16 µM
  TGI: 18.4 µM
COLO 205 colon
  GI50: 13.8 µM
  TGI: 38 µM
SR leukemia
  GI50: > 100 µM
  TGI: > 100 µM
M14 melanoma
  GI50: 2.81 µM
  TGI: 7.87 µM
NCI/ADR-RES ovarian
  GI50: 5.49 µM
  TGI: > 100 µM
HCC-2998 colon
  GI50: 13.8 µM
  TGI: 61.8 µM

## C=CC/C(=C\COP(=O)(OCc1ccc([N+](=O)[O-])o1)N(C)CCCCCl)CC/C=C(\C)CCC=C(C)C (stereo not given)
TK-10 renal
  GI50: 83.8 µM
  TGI: > 100 µM
HCT-15 colon
  GI50: 12.8 µM
  TGI: 30.4 µM
U251 CNS
  GI50: 11 µM
  TGI: 23 µM
MDA-MB-435
  GI50: 16.8 µM
  TGI: 44.1 µM
COLO 205 colon
  GI50: 20.4 µM
  TGI: 43.2 µM
SR leukemia
  GI50: 3.46 µM
  TGI: 41.8 µM
M14 melanoma
  GI50: 4.04 µM
  TGI: 18.2 µM
NCI/ADR-RES ovarian
  GI50: 11.9 µM
  TGI: 24.1 µM

## CCCCN(CCCC)CCC(O)c1cc2c(Cl)cc(Cl)cc2c2cc(C(F)(F)F)ccc12 (stereo not given)
TK-10 renal
  TGI: 27.6 µM
HCT-15 colon
  TGI: 19.1 µM
U251 CNS
  TGI: 31.7 µM
MDA-MB-435
  TGI: 28.7 µM
HOP-62 NSCLC
  TGI: 21.9 µM
COLO 205 colon
  TGI: 23.6 µM
SR leukemia
  TGI: 28.9 µM
M14 melanoma
  TGI: 23.6 µM
NCI/ADR-RES ovarian
  TGI: 26.1 µM
HCC-2998 colon
  TGI: 24.2 µM

## C/C(=N\NC(=S)N1CCCCCCCCCCCC1)c1ccccn1
TK-10 renal
  TGI: 1.35 µM
HCT-15 colon
  TGI: 1.6 µM
U251 CNS
  TGI: 0.28 µM
MDA-MB-435
  TGI: 0.721 µM
HOP-62 NSCLC
  TGI: 1.36 µM
SR leukemia
  TGI: 2.28 µM
M14 melanoma
  TGI: 2.15 µM
NCI/ADR-RES ovarian
  TGI: 9.7 µM
HCC-2998 colon
  TGI: 1.63 µM

## O=C(O)CCc1c2ccc(=O)c(O)c-2oc2c(O)c(O)ccc12
TK-10 renal
  TGI: > 100 µM
HCT-15 colon
  TGI: > 100 µM
U251 CNS
  TGI: > 100 µM
MDA-MB-435
  TGI: 31.1 µM
HOP-62 NSCLC
  TGI: > 100 µM
COLO 205 colon
  TGI: > 100 µM
SR leukemia
  TGI: > 100 µM
M14 melanoma
  TGI: > 100 µM
NCI/ADR-RES ovarian
  TGI: > 100 µM
HCC-2998 colon
  TGI: > 100 µM

## Oc1cccc(/C=N/Nc2nnc(N/N=C/c3cccc(O)c3)c3ccccc23)c1
TK-10 renal
  TGI: 50.9 µM
HCT-15 colon
  TGI: 39 µM
U251 CNS
  TGI: 29.6 µM
MDA-MB-435
  TGI: 81 µM
HOP-62 NSCLC
  TGI: 33 µM
COLO 205 colon
  TGI: > 100 µM
SR leukemia
  TGI: 7.06 µM
M14 melanoma
  TGI: > 100 µM
NCI/ADR-RES ovarian
  TGI: 60.1 µM

## Cc1[nH]nc2c1N=C(c1ccccc1F)c1cc(C(N)=O)ccc1N2
TK-10 renal
  GI50: 3.61 µM
  TGI: 16.3 µM
HCT-15 colon
  GI50: 4.69 µM
  TGI: > 25 µM
U251 CNS
  GI50: 0.71 µM
  TGI: 10.2 µM
MDA-MB-435
  GI50: 7.35 µM
  TGI: > 25 µM
HOP-62 NSCLC
  GI50: 3.79 µM
  TGI: 24.4 µM
COLO 205 colon
  GI50: 2.3 µM
  TGI: 6.61 µM
SR leukemia
  GI50: 0.191 µM
  TGI: 8.2 µM
M14 melanoma
  GI50: 7.86 µM
  TGI: > 25 µM
NCI/ADR-RES ovarian
  GI50: > 25 µM
  TGI: > 25 µM
HCC-2998 colon
  GI50: 8.51 µM
  TGI: > 25 µM

## Cc1ccn2c(CCc3nnc4cc(C)ccn34)nnc2c1
TK-10 renal
  TGI: > 100 µM
HCT-15 colon
  TGI: > 100 µM
U251 CNS
  TGI: > 100 µM
MDA-MB-435
  TGI: > 100 µM
HOP-62 NSCLC
  TGI: > 100 µM
COLO 205 colon
  TGI: > 100 µM
SR leukemia
  TGI: > 100 µM
M14 melanoma
  TGI: > 100 µM
NCI/ADR-RES ovarian
  TGI: > 100 µM

## Cc1ccc(C2=C(c3ccc(C)cc3)C3(c4ccc(C)cc4)C4C(=O)c5ccccc5C(=O)C4C2(c2ccc(C)cc2)S3=O)cc1 (stereo not given)
TK-10 renal
  GI50: > 100 µM
  TGI: > 100 µM
HCT-15 colon
  GI50: > 100 µM
  TGI: > 100 µM
U251 CNS
  GI50: 63 µM
  TGI: > 100 µM
MDA-MB-435
  GI50: > 100 µM
  TGI: > 100 µM
HOP-62 NSCLC
  GI50: 73.7 µM
  TGI: > 100 µM
COLO 205 colon
  GI50: > 100 µM
  TGI: > 100 µM
M14 melanoma
  GI50: > 100 µM
  TGI: > 100 µM
NCI/ADR-RES ovarian
  GI50: > 100 µM
  TGI: > 100 µM
HCC-2998 colon
  GI50: > 100 µM
  TGI: > 100 µM

## Cc1cc2nc3cc(C)c(N)cc3[n+](-c3ccccc3)c2cc1N
TK-10 renal
  GI50: 36.6 µM
  TGI: > 100 µM
HCT-15 colon
  GI50: > 100 µM
  TGI: > 100 µM
U251 CNS
  GI50: 0.945 µM
  TGI: > 100 µM
MDA-MB-435
  GI50: 4.68 µM
  TGI: 67 µM
HOP-62 NSCLC
  GI50: 3.7 µM
  TGI: > 100 µM
COLO 205 colon
  GI50: 2.55 µM
  TGI: 14.3 µM
M14 melanoma
  GI50: 21.2 µM
  TGI: > 100 µM
NCI/ADR-RES ovarian
  GI50: > 100 µM
  TGI: > 100 µM
HCC-2998 colon
  GI50: 4.05 µM
  TGI: > 46 µM
